This note sets out measurements from a melting point compilation (Tetko et al.; mined from patent text by program, amines drawn as free bases though some values may be those of a salt).

For the compound `COC1OC(COCc2ccccc2)C(OCc2ccccc2)C(NC(C)=O)C1OCc1ccccc1` (stereo unspecified), the melting point lay in the range of 147 to 151 °C.

`O=C(OCC1CCCO1)C1Oc2ccccc2Cc2ccccc2O1` (stereo unspecified) yielded a melting point of 83 to 85 °C.

With `CN(C)Cc1ccc(CN)cc1`, the melting point was in the range of 38 to 39 °C.

Take `CCOC(=O)Oc1cc(OC)cc(OC)c1C(=O)C=Cc1ccc(OC)cc1`: the melting point amounted to 107 °C.

For `Cc1ccc2c(c1)[C@H](Nc1nc(N)nc(C(F)F)n1)[C@@H](C)C2`, the melting point was in the range of 132 to 134 °C.

The compound `Cc1ccc(-c2nc(C)nn2-c2ccc(S(N)(=O)=O)cc2)cc1` registered a melting point of 248 to 249 °C.

The compound `N#Cc1ccc(-c2ccc(O)c(C=O)c2)cc1` gave a melting point of 144 °C.

`N#Cc1cscc1Sc1ccccc1` came in with a melting point of 32 to 34 °C.

In the case of `CCOC(=O)c1c(SCC)cc(C(F)(F)F)nc1C(F)(F)F`, the melting point was 36 to 37.5 °C.

`CCCCCCCCCC(=O)Nc1ccc(S(=O)(=O)Nc2nnc(C(C)(C)C)s2)cc1` displayed a melting point of 156 to 157 °C.

For the compound `CC(=O)NCc1ccc(CN2CCN(c3ccc([N+](=O)[O-])cc3)CC2)cc1`, the melting point lay within 152 to 154 °C.

For the compound `CC1=CC(=O)C(C)=C2CC(C)(C)N=C12`, the melting point lay within 107 to 109 °C.

`O=c1n(CCCC2CCCCC2)ccn1-c1ccc([N+](=O)[O-])cc1`: the melting point lay within 153 to 156 °C.

In the case of `O=C(Cl)CCCC(=O)Cl`, the melting point is 60.6 to 61.4 °C.

The compound `COC(=O)C1=Cc2cccc(OCc3ccccc3)c2CC1` registered a melting point of 64 to 67 °C.

`CC1(C)Oc2ccc(C#N)cc2[C@@H](NC(=O)Nc2cccc(-c3ncno3)c2)[C@@H]1O` gave a melting point of 168 to 170 °C.

Compound `O=S(=O)(N[C@H](CO)[C@@H](c1ccccc1)C(F)(F)F)c1ccc(Cl)cc1` returned a melting point of 129 to 131 °C.

The compound `O=c1ccn(CCO)c(Cc2ccccc2)c1O` showed a melting point of 228 to 230 °C.

Regarding `COCCOc1ccc(/C=C/C(=O)O)c(OCC2CCCCC2)c1`, the melting point stood at 112 °C.

`CNc1cc(OCC2CO2)ccc1[N+](=O)[O-]` (stereo unspecified) displayed a melting point of 113 °C.

In the case of `COc1ccc(N2CCOCC2)c2sc(-c3nc4ccc(C)nc4[nH]3)nc12`, the melting point lay within 200 to 210 °C.

On to `COc1ccc(-c2ccc(C#N)cc2)cc1-c1nc2cc(C#N)ccc2[nH]1`, for which the melting point was 289 to 290 °C.

`CC(C(C#N)C(=O)O)C(C)(C)C` (stereo unspecified) had a melting point of 68 to 78 °C.

For the compound `CC(C)(C)OC(=O)Nc1ccsc1NC(=O)OC(C)(C)C`, the melting point was 165 to 167 °C.

The compound `CNC(=O)c1cc2c(nc(C)n2C)c2c1CCC(c1ccccc1)O2` (stereo unspecified) had a melting point of 291 to 292 °C.

In turn, `CN(C(=O)c1ccc(N)cc1)c1ccccc1N` came in with a melting point of 159 to 160 °C.

`c1ccc(CSc2nc3sccn3n2)cc1` came in with a melting point of 91 to 93 °C.

With `COC(=O)CCC(=NOCc1ccc(OCCc2nc(-c3ccccc3)oc2C)cc1)c1ccccc1`, the melting point lay in the range of 73 to 74 °C.

`O=C(CC(=O)c1ccc(C(=O)CC(=O)c2ccccc2)cc1)c1ccccc1`: the melting point lay within 175 to 177 °C.

`COc1cc2ncc(C#N)c(Nc3ccc(SC)cc3)c2cc1OC` yielded a melting point of 235 to 237 °C.

`C=CC(=O)Oc1ccc(Cl)c2c(N(C)C)ncnc12` showed a melting point of 95 to 100 °C.

Compound `NC(=O)c1ccc(Cl)c2c1C=C([N+](=O)[O-])CO2` yielded a melting point of 225 to 227 °C.

In turn, `c1ccc(NCC2CCNCC2)cc1` displayed a melting point of 60 to 61 °C.

As to `CCS(=O)(=O)c1cc(C(=O)NCC2CCCN2C)c(OC)cc1N` (stereo unspecified), the melting point fell in the range of 126 to 127 °C.

`CCCCCCCS(=O)(=O)c1nn2c(=O)c(C)c(F)nc2s1` displayed a melting point of 143 to 146 °C.

In turn, `CC1CCC(c2ccc(Cl)c(C(F)(F)F)c2)=NN1S(=O)(=O)c1ccc(I)cc1` (stereo unspecified) gave a melting point of 157 to 158 °C.

The compound `CCOc1nn(Cc2ccnc(OCc3cn4c(Cl)cccc4n3)c2)cc1CCC(=O)O` returned a melting point of 160 to 161 °C.

Compound `CN1CCN(c2cccc3ccc(Nc4ccc([N+](=O)[O-])cn4)cc23)CC1` had a melting point of 121 to 125 °C.

Consider `CC1CCC(N(CC2CCC(CN(C(=O)Nc3ccc(N4CCCCC4)cc3)C3CCC(C)CC3)CC2)C(=O)Nc2ccc(N3CCCCC3)cc2)CC1` (stereo unspecified), for which the melting point lay in the range of 161 to 165 °C.

`c1ccc2c(c1)CSCCCN2`: the melting point was in the range of 77 to 79 °C.

In turn, `Cc1cccc(C(=O)C(=C2SCS2)c2ccncc2)c1` came in with a melting point of 179 °C.

Consider `CC(C)(C)OC(=O)NC(Cc1ccccc1)C(O)CNCC(O)C(Cc1cccc(OCc2ccccc2)c1)NC(=O)OC(C)(C)C` (stereo unspecified), for which the melting point fell in the range of 125 to 145 °C.

Compound `CCN1C(=O)C(C)(C)c2ccc(C(=O)Nc3ccccc3)cc21` registered a melting point of 227 to 230 °C.

On to `Cc1ccc2c(c1)C(=O)CCC21CCC(=O)N(C)C1=O` (stereo unspecified), for which the melting point lay in the range of 146 to 148 °C.

`Cc1nc(CN(C)C(=O)N[C@H](C(=O)N[C@@H](Cc2ccccc2)[C@@H](O)C[C@H](Cc2ccccc2)NC(=O)OCc2cccnc2)C(C)C)cs1` yielded a melting point of 66 to 69 °C.

As to `Cc1cccc(NC(=O)c2ccccc2SSc2ccccc2C(=O)Nc2cccc(C)c2)c1`, the melting point was 193 to 195 °C.

Compound `CCOC(=O)c1c(S(=O)C(C)C)c2cc(OCc3ccccc3)ccc2n1C` (stereo unspecified) had a melting point of 142 to 145 °C.

Turning to `O=[N+]([O-])c1cccc(N2N=C(O)c3ccccc3C2CCO)c1` (stereo unspecified), the melting point was 164 to 165 °C.

Compound `C#CCCc1c(C)c(OC)c(C)c(C)c1OC` yielded a melting point of 54 °C.

For the compound `COc1ccc(C(=CC(=O)N2CCOCC2)c2ccc(NC(=O)NS(=O)(=O)c3ccc(C)cc3)cc2)cc1OC`, the melting point was in the range of 220 to 225 °C.

Turning to `CCOC(=O)c1cnc2sc(C)cc2c1O`, the melting point fell in the range of 118 to 120 °C.

`C/C=C(/c1ccc(C(=O)O)cc1)c1ccc2c(c1)C(C)(C)CCC2(C)C`: the melting point was 212 °C.

In turn, `N#CSc1ccc(NC(=O)OCc2cccnc2)cc1` had a melting point of 188 to 191 °C.

Compound `CN(C)c1ccc(-c2nc(Cl)c3ccccc3n2)cc1` had a melting point of 167 to 170 °C.

Compound `CC1CC(NC(=O)C(F)(F)F)=NN1c1ccc(Cl)c(Cl)c1` (stereo unspecified) had a melting point of 150 to 152 °C.

Turning to `Nc1c(CCO)cccc1C(=O)c1ccc(Cl)cc1`, the melting point was in the range of 111 to 126 °C.

Regarding `COc1ccc2cc(-c3cccc(C=O)c3)cc(CCNC(C)=O)c2c1`, the melting point lay within 123 to 125 °C.

`CCOC(=NC(=O)Nc1ccc(OC(F)(F)F)cc1)c1c(F)cccc1F` yielded a melting point of 98 to 100 °C.

`CC1=CC2=C(N3CN(N4CCOCC4)C=C3N=N2)N(c2ccccc2Cl)C1` came in with a melting point of 251 to 254 °C.

As to `OCCNc1ccc(C2CCCCC2)cc1`, the melting point was 39 to 41 °C.

`CCNc1cccc2c(S(=O)(=O)Nc3cnc(Br)cn3)cccc12` registered a melting point of 220 to 222 °C.

`CCN1C(=O)C(C(=O)Nc2cccc(C(=O)Nc3ccc(Cl)cc3)c2)c2cc(C(C)=O)ccc21` (stereo unspecified) gave a melting point of 119 to 121 °C.

Turning to `Cc1ccc(Oc2nc3ccc(N=C=S)cc3s2)cc1`, the melting point lay within 121 to 123 °C.

With `CC(=O)NC(=Cc1c[nH]c2cc(Cl)ccc12)C(=O)O`, the melting point was 225 °C.

`COc1cc(C[C@H]2NC(=O)CN(Cc3ccccc3)C2=O)ccc1C` returned a melting point of 205 to 209 °C.

As for `CCn1c(=O)c2ccc(C(=O)O)cc2n(Cc2ccc(Cl)cc2Cl)c1=O`, the melting point is 238 to 240 °C.

The compound `COc1ccc2c(c1)CCC1C2CCC2(C)C(O)C(C)CC12` (stereo unspecified) had a melting point of 100 to 102 °C.

On to `Nc1sc(-c2cccs2)c(CN(C2CCCCC2)C2CCCCC2)c1C(=O)c1ccc(Cl)cc1`, for which the melting point lay within 197 to 199 °C.

Compound `CCOC(=O)c1ncn2c1[C@@H]1CCN1C(=O)c1cc(F)ccc1-2` returned a melting point of 226 to 227 °C.

Compound `CCc1cc(C(=O)OC)nn1C` displayed a melting point of 188 to 191 °C.

As to `O=c1cc(Nc2cc([N+](=O)[O-])ccc2Cl)[nH]n1-c1c(Cl)cc(Cl)cc1Cl`, the melting point was in the range of 274 to 278 °C.

Compound `COc1ccc(Br)cc1C1C2CC3CC(C2)CC1C3` (stereo unspecified) registered a melting point of 140 to 141 °C.

Compound `CC(=O)c1c(C)c2cnc(Nc3ccc(N4CCNCC4)nc3)nc2n(C2CCCC2)c1=O` showed a melting point of 125 °C.

The compound `CC(=O)Oc1nc(-c2ccccc2)sc1-c1ccccc1` had a melting point of 101 to 103 °C.

Consider `COc1ccc(C(=O)OC2C=C(C)C(=O)CC(C)(C)C2O)cc1OC` (stereo unspecified), for which the melting point lay in the range of 161 to 164 °C.

Compound `Cc1ccc(S(=O)(=O)N(C)c2ccc([N+](=O)[O-])cc2C)cc1` registered a melting point of 103 to 104 °C.

The compound `CSc1[nH]c2cccc3c2c1CC1C3CC(C)CN1C` (stereo unspecified) came in with a melting point of 201 to 202 °C.

Compound `Nc1cc2cccnc2c(Cc2ccccc2)n1` yielded a melting point of 113 to 116 °C.

Take `CCc1c(-c2ccc(OC)cc2)c2c(CO)cc3cccc1n32`: the melting point fell in the range of 97 to 100 °C.

With `O=C1NCc2c1cc1ccc3c(c1c2-c1ccc(OCc2ccccc2)cc1)OCO3`, the melting point lay in the range of 257 to 260 °C.

The compound `O=C1CN=C(c2ccccc2)c2ccccc2N1` registered a melting point of 180 to 181 °C.

`CCOc1cccc(-c2cnc3[nH]cc(C(=O)C(C)(C)C)c3n2)c1`: the melting point was in the range of 195 to 196 °C.

`N#Cc1cn2cc(Br)nc(N3CCOCC3)c2n1`: the melting point turned out to be 265 °C.

The compound `O=C(NC(=O)c1ccccc1)NC1CCN(CC(=O)C2COc3ccccc3O2)CC1` (stereo unspecified) returned a melting point of 160 to 161 °C.

`CC1CCOP(C)(=O)C1` (stereo unspecified) gave a melting point of 78 to 83 °C.

Compound `O=C(O)Cc1coc2cc(OCc3ccc(OCc4ccc(C(F)(F)F)cc4)cc3)ccc12` showed a melting point of 161 to 163 °C.

`Nc1ncc(Br)c(NCC2(CO)CCC2)n1` registered a melting point of 156 to 158 °C.

Compound `CCCCc1nc2c(N)nc3cc(CCc4ccccc4)ccc3c2n1CC(C)C` had a melting point of 181 to 182 °C.

For the compound `Cn1c(=O)[nH]c2nc3ccc(OCCCC(=O)O)cc3cc21`, the melting point was 286 to 288 °C.

For the compound `Cc1cc(C)nc(N2CC=C(N)N2)n1`, the melting point was 205 °C.

Turning to `O=C(O)c1cccc(Oc2cccc(-c3nnc(N(Cc4ccc(C(F)(F)P(=O)(O)O)c(Cl)c4)c4ccc(Cl)c(Cl)c4)s3)c2)c1`, the melting point was in the range of 178 to 180 °C.

The melting point is the temperature of the solid-liquid transition.
